The results in this text go back to US5824683A, “2'-[[4'-h alo-[1,1'-biphenyl]-4-yl]methyl]-5'-methyl-spiro[cyclopentane-1,7' (8'H)-[3H] imidazo[2,1-b]purin]-4' (5'H)-ones” (Schering Corporation, priority 1996, dated 1998).

The structures appear in SMILES notation.

The nature of data set [1]: Plasma levels in SHR after oral dosing. The data set is classed as in vivo. Conditions: rat, 10 mg/kg, 10 mpk orally, sampled 0.5, 1, 2, 3 and 4 hours, read-out: Plasma Level AUC. As to the method: SHRs dosed orally with test compound at 10 mpk and plasma levels were subsequently measured at intervals of 0.5, 1, 2, 3 and 4 hours. Plasma levels (μg/ml) were plotted versus hours post dosing and the area under the curve (AUC, μghr/ml) was calculated.

Data set [2] deals with T1, PDE Type I (calcium-calmodulin dependent phosphodiesterase, CaM-PDE) (Bos taurus, UniProt P14100).
T1 construct: from tissue; host or cells: bovine aorta
The experiment in a line: Phosphodiesterase inhibition in vitro, Type I (calcium-calmodulin dependent phosphodiesterase, CaM-PDE). The data set is classed as biochemical. Particulars: CaM-PDE from bovine aorta; 1 μM 3H-cGMP substrate; pH 7.5; 25 minutes, room temperature.

For data set [3], the system named is spontaneously hypertensive rats (SHR). The data set is described as follows: Antihypertensive activity in conscious spontaneously hypertensive rats (SHR). Conditions: 10 mpk po, fasted overnight, mean blood pressure. It counts as in vivo, rat. As to the method:
The ability of the compounds of the present invention to lower blood pressure can be assessed in vivo in conscious spontaneously hypertensive rats (SHR). SHR males are purchased from Taconic Farms, Germantown New York and are approximately 16-18 weeks old when anesthetized with ether. The caudal (ventral tail) artery is cannulated with polyethylene tubing (PESO) and blood pressure and heart rate are recorded as described by Baum, T. et. al, J. Cardiovasc. Pharmacol. Vol 5, pp. 655-667, (1983). Rats are placed into plastic cylindrical cages where they rapidly recover consciousness. Blood pressure and heart rate are allowed to stabilize for approximately 90 minutes prior to compound administration. Compounds are administered orally as solutions or suspensions in 0.4% aqueous methylcellulose vehicle via a feeding needle. The compound or 0.4% aqueous methylcellulose vehicle are given in a volume of 4 ml/kg to SHRs that had been fasted overnight. Activity is expressed as the fall in mean blood pressure (MBP) in millimeters of mercury (mm Hg). Compound-induced changes are compared with the changes in an appropriate placebo group.

The target of data set [4] is T2, PDE Type V (cGMP phosphodiesterase, cGMP-PDE) (Bos taurus, UniProt Q28156).
T2 construct: homogeneous enzyme obtained from bovine lung and purified by ion-exchange chromatography, gel filtration, and sucrose gradient centrifugation; from tissue; host or cells: bovine lung
The experiment in a line: Phosphodiesterase inhibition in vitro, Type V (cGMP phosphodiesterase, cGMP-PDE). Conditions: cGMP-PDE from bovine lung; 1 μM 3H-cGMP substrate; pH 7.5; 25 minutes, room temperature. It counts as biochemical.

As to `COc1ccc(-c2ccc(Cc3nc4c([nH]3)C(=O)N(C)C3=NC5(CCCC5)CN34)cc2)cc1` [Ref. Cpd., 2'-[[(4'-methoxy-1,1'-biphenyl) -4-yl]methyl]-5'-methyl-spiro[cyclopentane-1,7'(8'H)-[3H]imidazo-[2,1-b]purin]-4'(5'H)-one, reference compound], the AUC at 4 h in data set [1] came to 3340 ng·h/mL. In addition, the IC50 in data set [2] was found to be 5 nM; in data set [4], 500 nM. Further, the “SHR Antihypertensive: Fall in MBP” value in data set [3] is given as -35 mmHg.

For the compound `CN1C(=O)c2[nH]c(Cc3ccc(-c4ccc(Br)cc4)cc3)nc2N2CC3(CCCC3)N=C12` [Example 2], the AUC at 4 h in data set [1] came to 5890 ng·h/mL. Besides, the IC50 in data set [2] is 12 nM; in data set [4], 210 nM. The “SHR Antihypertensive: Fall in MBP” value in data set [3] is -11 mmHg.

Regarding `CN1C(=O)c2[nH]c(Cc3ccc(-c4ccc(Cl)cc4)cc3)nc2N2CC3(CCCC3)N=C12` [Example 1], the AUC at 4 h in data set [1] stood at 4800 ng·h/mL. Also, the IC50 was determined as 11 nM in data set [2] and 170 nM in data set [4]. Further, the “SHR Antihypertensive: Fall in MBP” value in data set [3] is recorded as -24 mmHg.

As for `CN1C(=O)c2[nH]c(Cc3ccc(-c4ccc(F)cc4)cc3)nc2N2CC3(CCCC3)N=C12` [Example 3], the AUC at 4 h in data set [1] is 7730 ng·h/mL. In addition, the IC50 in data set [2] is 9 nM; in data set [4] it was 520 nM. Also, in data set [3], the “SHR Antihypertensive: Fall in MBP” value is -35 mmHg.
